Measurements as given in US20260062443A1 (ALEXION PHARMACEUTICALS, INC., priority 2022, published 2026).

target: T1, Human complement C1s enzyme (Homo sapiens, UniProt P09871); assay: Human C1s enzyme assay; assay type: biochemical; conditions: human complement C1s enzyme 1.16 nM, substrate Z-L-Lys-SBzl 100 μM, 5 min preincubation; read-out: IC50 (Stars), C1s Inhibiting Activity
T1 sequence (P09871 438-688 limits assumed): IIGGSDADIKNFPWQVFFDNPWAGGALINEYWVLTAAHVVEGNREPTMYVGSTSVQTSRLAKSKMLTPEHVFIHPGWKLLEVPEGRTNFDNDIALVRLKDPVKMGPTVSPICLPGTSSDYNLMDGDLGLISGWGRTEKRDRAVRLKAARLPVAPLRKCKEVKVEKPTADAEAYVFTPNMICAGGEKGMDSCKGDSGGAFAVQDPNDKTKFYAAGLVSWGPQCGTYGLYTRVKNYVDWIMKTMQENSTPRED
T1 sequence (P09871 16-437 partner limits assumed): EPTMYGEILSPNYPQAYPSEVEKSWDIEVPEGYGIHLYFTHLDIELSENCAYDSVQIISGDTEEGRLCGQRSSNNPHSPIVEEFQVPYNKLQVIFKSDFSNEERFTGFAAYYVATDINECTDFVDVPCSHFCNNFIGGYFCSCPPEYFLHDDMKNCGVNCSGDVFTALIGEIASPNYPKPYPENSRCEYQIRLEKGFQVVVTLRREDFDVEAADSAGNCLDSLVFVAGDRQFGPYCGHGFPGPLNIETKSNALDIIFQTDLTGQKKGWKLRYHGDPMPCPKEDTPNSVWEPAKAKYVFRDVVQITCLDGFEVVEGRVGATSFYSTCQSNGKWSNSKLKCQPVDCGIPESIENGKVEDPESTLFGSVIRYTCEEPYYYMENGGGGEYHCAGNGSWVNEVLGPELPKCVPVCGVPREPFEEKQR
Outline: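 IC50 from nonlinear regression of reaction rates versus compound concentration, with rates taken from A405 recorded at 30 s intervals over 30 min after adding 100 μM Z-L-Lys-SBzl plus 100 μM DTNB. Enzyme was human C1s purified from serum, 1.16 nM, given 5 min compound preincubation at room temperature, pH 7.5 Tris/1 M NaCl.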

SMILES	IC50 [µM]
O=C(NCC(=O)N1C[C@H](OC(F)F)C[C@H]1C(=O)NCc1ccn2ccnc2c1)c1ccc2c(c1)Oc1ccccc1S2 [Compound 237, (2S,4R)-4-(difluoromethoxy)-N-(imidazo[1,2-a]pyridin-7-ylmethyl)-1-((phenoxathiine-3-carbonyl)glycyl)pyrrolidine-2-carboxamide]	> 1
O=C(NCC(=O)N1CC2(C[C@H]1C(=O)NCc1cc3ncccc3[nH]1)OCCO2)c1ccc2c(c1)-c1ccccc1C2(F)F [Compound 34, (S)-N-((1H-pyrrolo[3,2-b]pyridin-2-yl)methyl)-7-((9,9-difluoro-9H-fluorene-3-carbonyl)glycyl)-1,4-dioxa-7-azaspiro[4.4]nonane-8-carboxamide]	> 1
O=C(NCC(=O)N1CC[C@H](c2ccccc2)[C@H]1C(=O)NCc1cc2cnccc2[nH]1)c1ccc2c(c1)Oc1ccccc1S2 [Compound 214, (2S,3R)-N-((1H-pyrrolo[3,2-c]pyridin-2-yl)methyl)-1-((phenoxathiine-3-carbonyl)glycyl)-3-phenylpyrrolidine-2-carboxamide]	> 1
CCc1ccc(Oc2cccc(C(=O)NCC(=O)N3C[C@H](OC(F)F)C[C@H]3C(=O)NCc3cc4cnccc4[nH]3)c2)s1 [Compound 368, (2S,4R)-4-(difluoromethoxy)-1-[2-[[3-[(5-ethyl-2-thienyl)oxy]benzoyl]amino]acetyl]-N-(1H-pyrrolo[3,2-c]pyridin-2-ylmethyl)pyrrolidine-2-carboxamide]	< 0.1
C[C@@]12C[C@@H]1N(C(=O)CNC(=O)c1ccc3c(c1)Oc1ccccc1S3)[C@H](C(=O)NCc1cc3c(s1)CCNC3)C2 [Compound 170, (1S,3S,5S)-5-methyl-2-((phenoxathiine-3-carbonyl)glycyl)-N-((4,5,6,7-tetrahydrothieno[3,2-c]pyridin-2-yl)methyl)-2-azabicyclo[3.1.0]hexane-3-carboxamide]	< 0.1
Cc1ccc(Oc2cccc(C(=O)NCC(=O)N3C[C@H](OC(F)F)C[C@H]3C(=O)NCc3cc4cnccc4[nH]3)c2F)cc1 [Compound 327, (2S,4R)-N-((1H-pyrrolo[3,2-c]pyridin-2-yl)methyl)-4-(difluoromethoxy)-1-((2-fluoro-3-(p-tolyloxy)benzoyl)glycyl) pyrrolidine-2-carboxamide]	< 0.1
COc1ccc(C(=O)NCC(=O)N2C[C@H](OC(F)F)C[C@H]2C(=O)NCc2cc3cnccc3[nH]2)cc1 [Compound 384, (2S,4R)-N-((1H-pyrrolo[3,2-c]pyridin-2-yl)methyl)-4-(difluoromethoxy)-1-((4-methoxybenzoyl)glycyl) pyrrolidine-2-carboxamide]	> 1
CCc1ccc(Oc2cccc(C(=O)NCC(=O)N3C[C@H](OC(F)F)C[C@H]3C(=O)NCc3cc4cnccc4[nH]3)c2)cc1 [Compound 293, (2S,4R)-N-((1H-pyrrolo[3,2-c]pyridin-2-yl)methyl)-4-(difluoromethoxy)-1-((3-(4-ethylphenoxy)benzoyl)glycyl) pyrrolidine-2-carboxamide]	< 0.1
O=C(NCC(=O)N1CC2(C[C@H]1C(=O)NCc1cc3cnccc3[nH]1)OCCO2)c1ccc(-c2ccccc2)cn1 [Compound 107, (S)-N-((1H-pyrrolo[3,2-c]pyridin-2-yl)methyl)-7-((5-phenylpicolinoyl)glycyl)-1,4-dioxa-7-azaspiro[4.4]nonane-8-carboxamide]	< 0.1
O=C(NCC(=O)N1C[C@H](OC(F)F)C[C@H]1C(=O)NCc1cnc2c(c1)CNC2)c1ccc2c(c1)Oc1ccccc1S2 [Compound 253, (2S,4R)-4-(difluoromethoxy)-N-((6,7-dihydro-5H-pyrrolo[3,4-b]pyridin-3-yl)methyl)-1-((phenoxathiine-3-carbonyl)glycyl)pyrrolidine-2-carboxamide]	0.1 to 1
CO[C@@H]1CCN(C(=O)CNC(=O)c2ccc3c(c2)Oc2ccccc2S3)[C@@H]1C(=O)NCc1cc2cnccc2[nH]1 [Compound 285]	> 1
COC[C@@]1(F)C[C@@H](C(=O)N[C@H](C)c2cc3cnccc3[nH]2)N(C(=O)CNC(=O)c2ccc(-c3ccc(F)cc3F)cc2)C1 [Compound 70, (2S,4R)-N-((R)-1-(1H-pyrrolo[3,2-c]pyridin-2-yl)ethyl)-1-((2′,4′-difluoro-[1,1′-biphenyl]-4-carbonyl)glycyl)-4-fluoro-4-(methoxymethyl)pyrrolidine-2-carboxamide]	> 1
O=C(NCC(=O)N1CC2(C[C@H]1C(=O)NCc1cc3ccccc3[nH]1)OCCO2)c1ccc2c(c1)-c1ccccc1C2(F)F [Compound 3, (S)-N-((1H-indol-2-yl)methyl)-7-((9,9-difluoro-9H-fluorene-3-carbonyl)glycyl)-1,4-dioxa-7-azaspiro[4.4]nonane-8-carboxamide]	> 1
C[C@@H](NC(=O)[C@@H]1C[C@](F)(CF)CN1C(=O)CNC(=O)c1ccc2c(c1)-c1ccccc1C2(F)F)c1cc2cnccc2[nH]1 [Compound 86, (2S,4R)-N-((R)-1-(1H-pyrrolo[3,2-c]pyridin-2-yl)ethyl)-1-((9,9-difluoro-9H-fluorene-3-carbonyl)glycyl)-4-fluoro-4-(fluoromethyl)pyrrolidine-2-carboxamide]	0.1 to 1
C[C@@H](NC(=O)[C@@H]1C[C@]2(C)C[C@@H]2N1C(=O)CNC(=O)c1ccc2c(c1)Oc1ccccc1S2)c1cc2cnccc2[nH]1 [Compound 130, (1S,3S,5S)-N-((R)-1-(1H-pyrrolo[3,2-c]pyridin-2-yl)ethyl)-5-methyl-2-((phenoxathiine-3-carbonyl)glycyl)-2-azabicyclo[3.1.0]hexane-3-carboxamide]	< 0.1
COc1cccc(C(=O)NCC(=O)N2C[C@H](OC(F)F)C[C@H]2C(=O)NCc2cc3cnccc3[nH]2)c1 [Compound 382, (2S,4R)-N-((1H-pyrrolo[3,2-c]pyridin-2-yl)methyl)-4-(difluoromethoxy)-1-((3-methoxybenzoyl)glycyl) pyrrolidine-2-carboxamide]	0.1 to 1
O=C(NCC(=O)N1C[C@H](OC(F)F)C[C@H]1C(=O)NCc1cc2cnccc2[nH]1)c1ccc2c(c1)-c1ccccc1C2(F)F [Compound 8, (2S,4R)-N-((1H-pyrrolo[3,2-c]pyridin-2-yl)methyl)-1-((9,9-difluoro-9H-fluorene-3-carbonyl)glycyl)-4-(difluoromethoxy)pyrrolidine-2-carboxamide]	< 0.1
Cc1ccc(Oc2ccc(C(=O)NCC(=O)N3C[C@H](OC(F)F)C[C@H]3C(=O)NCc3cc4cnccc4[nH]3)cc2)c(F)c1 [Compound 316, (2S,4R)-N-((1H-pyrrolo[3,2-c]pyridin-2-yl)methyl)-4-(difluoromethoxy)-1-((4-(2-fluoro-4-methylphenoxy)benzoyl)glycyl) pyrrolidine-2-carboxamide]	< 0.1
O=C(NCC(=O)N1C[C@H](OC(F)F)C[C@H]1C(=O)NCc1ccc2[nH]cnc2n1)c1ccc2c(c1)Oc1ccccc1S2 [Compound 258, (2S,4R)-N-((1H-imidazo[4,5-b]pyridin-5-yl)methyl)-4-(difluoromethoxy)-1-((phenoxathiine-3-carbonyl)glycyl)pyrrolidine-2-carboxamide]	> 1
C[C@@H](NC(=O)[C@@H]1C[C@@H](OC(F)F)CN1C(=O)CNC(=O)c1ccc(-c2ccc(F)cc2F)cc1)c1cc2cnccc2[nH]1 [Compound 90, (2S,4R)-N-((R)-1-(1H-pyrrolo[3,2-c]pyridin-2-yl)ethyl)-1-((2′,4′′-difluoro-[1,1′-biphenyl]-4-carbonyl)glycyl)-4-(difluoromethoxy)pyrrolidine-2-carboxamide]	< 0.1
